The supplement of paper PMC13207355

What was measured:
Conditions in all cases: exposure time: 72 h
FT3469 [1] = normal neural stem cell line; experiment: phenotypic distance (Euclidean, principal components) from DMSO controls (arbitrary units); higher = stronger morphological change
E21 [2] = patient-derived glioblastoma stem cells of mesenchymal subtype; experiment: as above
E34 [3] = patient-derived glioblastoma stem cells of proneural subtype; experiment: as above
E28 [4] = patient-derived glioblastoma stem cells of classical subtype; experiment: as above
E13 [5] = patient-derived glioblastoma stem cells of classical subtype; experiment: as above
E31 [6] = patient-derived glioblastoma stem cells of proneural subtype; experiment: as above
E57 [7] = patient-derived glioblastoma stem cells of mesenchymal subtype; experiment: as above
FT3469 [8] = experiment: surviving fraction (nuclei count normalised to DMSO); higher = more cells surviving (less toxic)
E21 [9] = experiment: as above
E34 [10] = experiment: as above
E28 [11] = experiment: as above
E13 [12] = experiment: as above
E31 [13] = experiment: as above
E57 [14] = experiment: as above
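Throughout, for phenotypic distance (Euclidean, principal components) from DMSO controls: cell Painting imaging in 384-well plates, CellProfiler features reduced to at least 20 principal components, Euclidean distance versus same-plate DMSO vehicle wells (0.1% v/v), median over six images per well.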
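Throughout, for surviving fraction (nuclei count normalised to DMSO): nuclei counted by high-content imaging of Hoechst-stained cells in laminin-coated 384-well plates, relative to 0.1% DMSO vehicle wells, with staurosporine as cell-death control.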

C[C@@H]1C[C@@H]([C@H](O)CC2CC(=O)NC(=O)C2)C(=O)[C@@H](C)C1 [Cycloheximide]
Conditions	phenotypic distance	surviving fraction
E13 [5], 4.1 nM	1.33	–
E13 [5], 12.3 nM	5.02	–
E13 [5], 37 nM	1.69	–
E13 [5], 111.1 nM	1.77	–
E13 [5], 333.3 nM	3.18	–
E13 [5], 1000 nM	3.1	–
E13 [5], 3000 nM	4.48	–
E13 [12], 4.1 nM	–	0.769
E13 [12], 12.3 nM	–	0.713
E13 [12], 37 nM	–	0.644
E13 [12], 111.1 nM	–	0.654
E13 [12], 333.3 nM	–	0.436
E13 [12], 1000 nM	–	0.408
E13 [12], 3000 nM	–	0.306
E21 [2], 4.1 nM	1.69	–
E21 [2], 12.3 nM	1.77	–
E21 [2], 37 nM	2.65	–
E21 [2], 111.1 nM	3.3	–
E21 [2], 333.3 nM	5.28	–
E21 [2], 1000 nM	4.65	–
E21 [2], 3000 nM	3.46	–
E21 [9], 4.1 nM	–	0.753
E21 [9], 12.3 nM	–	0.688
E21 [9], 37 nM	–	0.532
E21 [9], 111.1 nM	–	0.518
E21 [9], 333.3 nM	–	0.443
E21 [9], 1000 nM	–	0.356
E21 [9], 3000 nM	–	0.305
E28 [4], 4.1 nM	0.801	–
E28 [4], 12.3 nM	0.904	–
E28 [4], 37 nM	0.979	–
E28 [4], 111.1 nM	1.14	–
E28 [4], 333.3 nM	1.17	–
E28 [4], 1000 nM	1.95	–
E28 [4], 3000 nM	2.12	–
E28 [11], 4.1 nM	–	0.899
E28 [11], 12.3 nM	–	0.76
E28 [11], 37 nM	–	0.771
E28 [11], 111.1 nM	–	0.592
E28 [11], 333.3 nM	–	0.542
E28 [11], 1000 nM	–	0.346
E28 [11], 3000 nM	–	0.451
E31 [6], 4.1 nM	0.95	–
E31 [6], 12.3 nM	0.932	–
E31 [6], 37 nM	1.32	–
E31 [6], 111.1 nM	1.7	–
E31 [6], 333.3 nM	2.21	–
E31 [6], 1000 nM	2.11	–
E31 [6], 3000 nM	3	–
E31 [13], 4.1 nM	–	0.854
E31 [13], 12.3 nM	–	0.905
E31 [13], 37 nM	–	0.703
E31 [13], 111.1 nM	–	0.684
E31 [13], 333.3 nM	–	0.477
E31 [13], 1000 nM	–	0.297
E31 [13], 3000 nM	–	0.261
E34 [3], 4.1 nM	1.3	–
E34 [3], 12.3 nM	0.758	–
E34 [3], 37 nM	0.919	–
E34 [3], 111.1 nM	1.49	–
E34 [3], 333.3 nM	1.35	–
E34 [3], 1000 nM	2.05	–
E34 [3], 3000 nM	3.12	–
E34 [10], 4.1 nM	–	0.885
E34 [10], 12.3 nM	–	0.873
E34 [10], 37 nM	–	0.815
E34 [10], 111.1 nM	–	0.616
E34 [10], 333.3 nM	–	0.562
E34 [10], 1000 nM	–	0.584
E34 [10], 3000 nM	–	0.414
E57 [7], 4.1 nM	1.49	–
E57 [7], 12.3 nM	1.61	–
E57 [7], 37 nM	2.55	–
E57 [7], 111.1 nM	2.56	–
E57 [7], 333.3 nM	4.4	–
E57 [7], 1000 nM	4.89	–
E57 [7], 3000 nM	4.79	–
E57 [14], 4.1 nM	–	0.723
E57 [14], 12.3 nM	–	0.694
E57 [14], 37 nM	–	0.546
E57 [14], 111.1 nM	–	0.511
E57 [14], 333.3 nM	–	0.322
E57 [14], 1000 nM	–	0.323
E57 [14], 3000 nM	–	0.227
FT3469 [1], 4.1 nM	0.852	–
FT3469 [1], 12.3 nM	0.622	–
FT3469 [1], 37 nM	1.06	–
FT3469 [1], 111.1 nM	1.36	–
FT3469 [1], 333.3 nM	5.19	–
FT3469 [1], 1000 nM	1.49	–
FT3469 [1], 3000 nM	1.95	–
FT3469 [8], 4.1 nM	–	0.912
FT3469 [8], 12.3 nM	–	0.753
FT3469 [8], 37 nM	–	0.87
FT3469 [8], 111.1 nM	–	0.918
FT3469 [8], 333.3 nM	–	0.691
FT3469 [8], 1000 nM	–	0.723
FT3469 [8], 3000 nM	–	0.633
